Assay results taken from patent publication US20130122541A1, “MICROORGANISM PRODUCTION OF HIGH-VALUE CHEMICAL PRODUCTS, AND RELATED COMPOSITIONS, METHODS AND SYSTEMS” (The Regents of the University of Colorado, priority 2010, published 2013).

Key:
[1] = tested on: wild-type E. coli BW25113; test: Growth response to 3-HP (toleragram, OD600, doublings over 24 h), E. coli aerobic; assay type: cell-based; conditions: aerobic condition, FIG. 15B
Method: Overnight cultures of wild-type E. coli BW25113 were grown in triplicate in 5 mL standard LB medium. 100 uL of overnight cultures were used to inoculate triplicate 5 mL samples of M9 minimal medium+3HP, containing 47.7 mM Na2HPO4, 22 mM KH2PO4, 8.6 mM NaCl, 18.7 mM NH4Cl, 2 mM MgSO4, 0.1 mM CaCl2, and 0.4% glucose, with 3HP concentrations ranging from 0-50 g/L. Starting OD600 ranged from 0.02-0.08. Cultures were incubated at 37 C for about 24 hours, and OD600 was recorded every 1-2 hours for the first 8 hours with a final OD600 recorded at about 24 hours. Maximum specific growth rates (μmax) were calculated by determining the optimal fit of exponential trend lines with OD data for the evaluation period. Specific changes in OD600 over approximately 24 hours (Δ24 hrOD600) were calculated as the difference in t=24 hr and t=0 optical density, Δ24hOD600=(ODt=24)−(ODt=0). Specific number of doublings (Nd) were calculated by solving for N in the equation 2^N=(ODt=24)/(ODt=0).

[2] = Reactive extraction of 3-HP from clarified fermentation broth into tertiary amine non-polar phase with co-solvents; assay type: physicochemical; conditions: for 3-HP concentration raffinate: start 96.85 g/L 3-HP, single pass
Method: Calcium chloride at 1 M was added as a flocculent to reach a final concentration of about 8.2 g/L. Thereafter the pH was adjusted to a pH of approximately 2.0 using sulfuric acid. Thereafter a volume of this modified fermentation broth was centrifuged at approximately 3,200 g for 5 minutes to yield a clarified broth and a pellet, which was discarded.
Portions of the clarified broth were then subjected to reactive extraction by mixing with a tertiary amine non-polar phase comprising various co-solvents. […] Amines included Alamine 336, described above, and tripentylamine.

[3] = sample 1: Alamine 336 with Butanol
[4] = sample 2: Tripentylamine with Butanol
[5] = sample 3: Tripentylamine with p-Xylene
[6] = sample 4: Tripentylamine with Methyl ethyl ketone
[7] = sample 5: Tripentylamine with Methyl tert-butyl ether
[8] = sample 1: Alamine 336 with Butanol, 3-HP mass start 0.97 G
[9] = sample 2: Tripentylamine with Butanol, 3-HP mass start 1.94 G
[10] = sample 3: Tripentylamine with p-Xylene, 3-HP mass start 1.94 G
[11] = sample 4: Tripentylamine with Methyl ethyl ketone, 3-HP mass start 1.94 G
[12] = sample 5: Tripentylamine with Methyl tert-butyl ether, 3-HP mass start 1.94 G

Compound: O=C(O)CCO [3-HP, 3-hydroxypropionic acid]
- 3-HP concentration at which a dramatic reduction in cell density (OD600) at 24 hours starts [1]: 30 g/L
- Total 3HP extracted [2, 3]: 0.59 G
- Total 3HP extracted [2, 4]: 1.13 G
- Total 3HP extracted [2, 5]: 0.46 G
- Total 3HP extracted [2, 6]: 1.31 G
- Total 3HP extracted [2, 7]: 0.73 G
- % 3-HP extracted [2, 3]: 61%
- % 3-HP raffinate [2, 3]: 39%
- 3-HP concentration raffinate ([2]; sample 1: Alamine 336 with Butanol co-solvent): 53.94 g/L
- 3-HP mass extractant [2, 8]: 0.59 G
- 3-HP mass raffinate [2, 8]: 0.38 G
- % 3-HP extracted [2, 4]: 58%
- % 3-HP raffinate [2, 4]: 42%
- 3-HP concentration raffinate ([2]; sample 2: Tripentylamine with Butanol co-solvent): 54.17 g/L
- 3-HP mass extractant [2, 9]: 1.13 G
- 3-HP mass raffinate [2, 9]: 0.81 G
- % 3-HP extracted [2, 5]: 24%
- % 3-HP raffinate [2, 5]: 76%
- 3-HP concentration raffinate ([2]; sample 3: Tripentylamine with p-Xylene co-solvent): 78.69 g/L
- 3-HP mass extractant [2, 10]: 0.46 G
- 3-HP mass raffinate [2, 10]: 1.47 G
- % 3-HP extracted [2, 6]: 67%
- % 3-HP raffinate [2, 6]: 33%
- 3-HP concentration raffinate ([2]; sample 4: Tripentylamine with Methyl ethyl ketone co-solvent): 52.75 g/L
- 3-HP mass extractant [2, 11]: 1.31 G
- 3-HP mass raffinate [2, 11]: 0.63 G
- % 3-HP extracted [2, 7]: 38%
- % 3-HP raffinate [2, 7]: 62%
- 3-HP concentration raffinate ([2]; sample 5: Tripentylamine with Methyl tert-butyl ether co-solvent): 67.64 g/L
- 3-HP mass extractant [2, 12]: 0.73 G
- 3-HP mass raffinate [2, 12]: 1.21 G
